# In patent publication US9604973B2, “Anti-cancer polyketide compounds” (priority 2012, dated 2017):
# Entries after “also recorded” stand apart in the source; their conditions may differ.
# How the values were obtained:
# [1] = tested on: DNAJB1; assay: Quantitative RT-PCR of unspliced mRNA in normal B cells; format: cell-based, human; conditions: 4 hours
# Experimental: (§1) Quantitative RT-PCR using primers specific for each intron quantified unspliced mRNA for DNAJB1 (FIG. 25A) and RIOK3 (FIG. 25B). GAPDH was used for normalization. […] Error bars indicate S.D.
# (§2) Normal B cells were purified from buffy coats of healthy volunteers, obtained from San Diego blood bank. Positive isolation with Dynabeads® CD19 pan B and DETACHaBEAD CD19 (Invitrogen Life Technologies, USA) were used to achieve more than 95% purity by flow cytometry analysis.
# (§3) CLL cells were treated with 100 nM of FD-895 and PLAD and 10 μM of F-Ara-A for 15 minutes, 1 and 4 h. Normal B and CLL cells were treated with 10, 100, and 1000 nM of FD-895 and PLAD and 10 μM of F-Ara-A for 4 h.
# (§4) Extraction of total RNA and cDNA synthesis were performed as described earlier. Unspliced mRNA was quantified using a 7900HT fast Real Time PCR System (Applied Biosystems). The amounts of unspliced mRNA of DNAJB1, and RIOK3 were determined by SYBR green (Power SYBR Green PCR Master Mix, Applied Biosystems) real-time quantitative RT-PCR using specific primers designed for the intron of each gene (see additional information section at the end).
# (§5) PCR using 0.2 μM of each primer was performed on 20 ng of the obtained cDNA. PCR conditions were 50° C. for 2 min; 95° C. for 10 min; 35 cycles of 94° C. for 20 s, 55° C. for 20 s, followed by 72° C. for 30 s. The mRNA levels were calculated using 2^−ΔΔCT method.^4 GAPDH was used as a control for normalization.
# [2] = tested on: RIOK3; assay: as above; format: cell-based, human; conditions: 4 hours
# Experimental: as §1, §2, §3, §4, §5
# [3] = tested on: normal B lymphocytes from healthy donor; assay: Flow cytometry, % specific induced apoptosis in normal B lymphocytes; format: cell-based, human; conditions: 48 hours
# Experimental: (§6) FIG. 20A-20C: FD-895 and PLAD induce apoptosis in CLL cells but not in normal lymphocytes with a TP53 independent activity: Primary leukemia B cells from CLL (FIG. 20A) patient with del (17p) and Tp53 mutation, (FIG. 20B) patient with wild type p53 and sensitive to F-Ara-A and (FIG. 20C) normal lymphocytes from healthy donor were incubated with FD-895, PLAD and F-Ara-A (0, 10, 100, 1000 10,000 nM) for 48 hours.
# (§7) FIG. 21: FD-895 and PLAD induce apoptosis in CLL cells not ONLY independently of Tp53 but also independently of SF3B1 mutational status: Primary leukemia B cells from CLL patient with SF3B1 wild, SF3B1 mutation, 17p DEL and normal B and T lymphocytes from healthy donor were incubated with FD-895 and PLAD with 100 nM for 48 hours. After incubation, the samples were harvested and % SIA was measured by flow cytometry as described above. […] Each dots represents number of CLL patient sample and normal B or T cells.
# as §2
# (§8) Apoptotic and viable cells were discriminated via flow cytometry of cells stained with 3,3′ dihexyloxacarbocyanine iodide (DiOC6) (Molecular Probes, Eugene, Oreg., USA) and propidium iodine (Sigma, St Louis, Mo., USA), as described.^3 Using this method viable cells exclude PI and stain brightly positive for DiOC6.
# [4] = tested on: CLL cells; assay: Flow cytometry, % specific induced apoptosis (DiOC6/PI) in primary CLL cells; format: cell-based, human; conditions: 48 hours
# Experimental: as §6, §7
# Peripheral blood mononuclear cells (PBMC) from patients with CLL were obtained from the CLL Research Consortium (CRC) tissue bank. The blood samples were collected after obtaining a written informed consent from the patients under a protocol approved by the institutional review board of The University of California, San Diego. All patients met criteria for CLL.^1 CLL B cells and PBMCs were separated from heparinized venous blood of the B-CLL patients by density gradient centrifugation using Ficoll-Hypaque (GE healthcare) as described earlier.^2 The samples that were used had more than 95% positive cells for CD19 and CD5+, as assessed by flow cytometry. CLL B cells were maintained in RPMI 1640 medium supplemented with 10% FBS, 2 mM L-glutamine, and 100 U/mL of penicillin and 100 μg/mL of streptomycin at 37° C. in an atmosphere of 5% CO2.
# as §8
# [5] = tested on: normal T lymphocytes from healthy donor; assay: Flow cytometry, % specific induced apoptosis in normal T lymphocytes; format: cell-based, human; conditions: normal T cells from healthy donors, 100 nM, 48 hours
# Experimental: as §7, §8
# [6] = Hydrolysis, NMR monitoring; format: physicochemical; conditions: neutral conditions; 10 mM in D2O/DMSO-d6 (10:1) at 37° C.
# Experimental: FIG. 18A-18B: Hydrolysis of FD-895 (1a). FIG. 18A) NMR monitoring of the incubation of 10 mM 1a in D2O/DMSO-d6 (10:1) at 37° C. Hydrolysis occurs as marked by a shift of the C11 proton (large to small circles). Assignments of 3a, 3b and 3c were made based on coupling constant and gCOSY analyses. FIG. 18B) LdC-HRMS trace depicting the products at 143 h including acids 3a-3c (mass calcd. for C31H52O10Na=607.3453 m/z) along with unhydrolized 1a (mass calcd. for C31H50O9Na=589.3347 m/z). Exact masses [M+Na]^+ are provided for each peak.
# Based on this observation, we turned our efforts to apply conventional SAR techniques to identify analogs with improved stability.
# [7] = tested on: HCT-116 cell line; assay: MTT cell proliferation assay; format: cell-based
# From the text: Structure Activity Relationships (SAR) studies for 1SS, […], 1RS, and […]. It has been reported that ablation of C3, C6 and C7 substituents is detrimental to activity. […] (See FIG. 4). Additional activity was also observed when C17 was left in its natural R configuration.
# [8] = B cells from healthy donors, 0-10,000 nM
# [9] = normal B cells from healthy donors, 100 nM
# [10] = CLL patients with 17p DEL, 100 nM
# [11] = CLL patients with SF3B1 mutation, 100 nM
# [12] = CLL patients with SF3B1 wild, 100 nM
# [13] = CLL patients with Tp53 mutation (so in the source)
# [14] = CLL patients with del (17p), 0-10,000 nM
Compound,unspliced mRNA of DNAJB1 [1],unspliced mRNA of RIOK3 [2],"apoptosis (% SIA) [3, 8]","apoptosis (% SIA) [3, 9]","apoptosis (% SIA) [4, 10]","apoptosis (% SIA) [4, 11]","apoptosis (% SIA) [4, 12]","apoptosis (% SIA) [4, 13]","apoptosis (% SIA) [4, 14]",apoptosis (% SIA) [5],hydrolysis [6],"IC50 ([7]; HCT-116 cell line, MTT)","IC50 ([7]; HCT-116 cell line, MTT, listed as 1RR)","IC50 ([7]; background statement, cell line not given)"
Pladienolide B,did not show significant increase in unspliced mRNA,did not show significant increase in unspliced mRNA,did not induce significant apoptosis,did not induce significant cell death; also recorded: did not show significant apoptosis,significant cells death; also recorded: induced apoptosis,significant cells death; also recorded: induced apoptosis,significant cells death,significant death,significant killing,did not induce significant cell death; also recorded: did not show significant apoptosis,,,,
CCC(OC)C(C)C1OC1C(O)C(C)/C=C/C=C(\C)C1OC(=O)CC(O)CCC(C)(O)C(OC(C)=O)/C=C/C1C (stereo not drawn) [FD-895],did not show significant increase in unspliced mRNA,did not show significant increase in unspliced mRNA,did not induce significant apoptosis,did not induce significant cell death; also recorded: did not show significant apoptosis,significant cells death; also recorded: induced apoptosis,significant cells death; also recorded: induced apoptosis,significant cells death,significant death,significant killing,did not induce significant cell death; also recorded: did not show significant apoptosis,undergoes hydrolysis under neutral conditions,0.0235 ± 0.0002 µM,0.0242 ± 0.0009 µM,0.0242 ± 0.0009 µM
